Source: ChEMBL document CHEMBL4334518, “Discovery and Pharmacological Studies of 4-Hydroxyphenyl-Derived Phosphonium Salts Active in a Mouse Model of Visceral Leishmaniasis” (J Med Chem, 2019)
Blank lines part the entries; values can stand above or below the compound they belong to. Activity calls are given as the source filed them. The calls are words filed in the database; no cut-off is given here.

Experiments:
Leishmania donovani [1] = experiment: Antileishmanial activity against Leishmania donovani MHOM/ET/67/HU3 promastigote after 72 hrs by MTT assay; type: functional, organism-based; conditions: MHOM/ET/67/HU3, 72 h
Leishmania donovani [2] = experiment: Antileishmanial activity against Leishmania donovani MHOM/ET/67/HU3 intracellular amastigotes infected in human THP1 cells after 96 hrs by prolong-gold antifade-reagent/DAPI staining based assay; type: functional, organism-based; conditions: MHOM/ET/67/HU3, THP-1, 96 h
[3] = Selectivity index, ratio of EC50 for cytotoxicity against human THP1 cells to EC50 for antileishmanial activity against Leishmania donovani MHOM/ET/67/HU3 amastigotes infected in human THP1 cells; type: toxicity, cell-based; conditions: read-out: Ratio EC50
THP-1 = experiment: Cytotoxicity against human THP1 cells assessed as reduction in cell viability after 72 hrs by MTT assay; type: cell-based; conditions: THP-1, 72 h
Leishmania donovani [4] = experiment: Potency index, ratio of amphotericin B EC50 to test compound EC50 for antileishmanial activity against Leishmania […] amastigote infected in THP1 cells; type: functional
Leishmania infantum [5] = experiment: Antileishmanial activity against Leishmania infantum LEM 3049 isolate promastigote after 72 hrs by MTT assay; type: functional, organism-based
Leishmania infantum [6] = experiment: Antileishmanial activity against Sb 3 resistant Leishmania infantum LEM 3329 isolate promastigote after 72 hrs by MTT assay; type: functional, organism-based
Leishmania infantum [7] = experiment: Antileishmanial activity against MIL resistant Leishmania infantum LEM 5159 isolate promastigote after 72 hrs by MTT assay; type: functional, organism-based
Leishmania infantum [8] = experiment: Antileishmanial activity against MIL/paromomycin resistant Leishmania infantum LEM 2126 isolate promastigote after 72 hrs by MTT assay; type: functional, organism-based
Leishmania infantum [9] = experiment: Antileishmanial activity against Leishmania infantum LEM 3049 isolate intracellular amastigotes infected in human THP1 cells after 96 hrs by prolong-gold antifade-reagent/DAPI staining based assay; type: functional, organism-based; conditions: THP-1, 96 h, read-out: EC50
Leishmania infantum [10] = experiment: Antileishmanial activity against Sb 3 resistant Leishmania infantum LEM 3329 isolate intracellular amastigotes infected in human THP1 cells after 96 hrs by prolong-gold antifade-reagent/DAPI staining based assay; type: functional, organism-based; conditions: THP-1, 96 h
Leishmania infantum [11] = experiment: Antileishmanial activity against MIL resistant Leishmania infantum LEM 5159 isolate intracellular amastigotes infected in human THP1 cells after 96 hrs by prolong-gold antifade-reagent/DAPI staining based assay; type: functional, organism-based; conditions: THP-1, 96 h
Leishmania infantum [12] = experiment: Antileishmanial activity against MIL/paromomycin resistant Leishmania infantum LEM 2126 isolate intracellular amastigotes infected in human THP1 cells after 96 hrs by prolong-gold antifade-reagent/DAPI staining based assay; type: functional, organism-based; conditions: THP-1, 96 h
[13] = Cmax in BALB/c mouse at 20 mg/kg, po measured for up to 72 hrs by HPLC analysis; type: ADME, organism-based; design: dose 20 mg/kg, route oral; conditions: in vivo
[14] = Tmax in BALB/c mouse at 20 mg/kg, po measured for up to 72 hrs by HPLC analysis; type: ADME, organism-based; conditions: in vivo
[15] = Primary phase half life in BALB/c mouse at 20 mg/kg, po measured for < 6 hrs by HPLC analysis; type: ADME, organism-based; conditions: in vivo, read-out: alphat1/2 (converted)
[16] = Apparent terminal half life in BALB/c mouse at 20 mg/kg, po measured for 6 to 72 hrs by HPLC analysis; type: ADME, organism-based; conditions: in vivo, read-out: betat1/2(app) (converted)
[17] = Half life in CD-1 mouse liver microsomes at 5 to 10 uM measured for 120 mins in presence of NADPH by RP-HPLC analysis; type: ADME, Microsome
[18] = Half life in CD-1 mouse liver microsomes at 10 to 20 uM measured for 120 mins in presence of UDPGA by RP-HPLC analysis; type: ADME, Microsome
[19] = Half life in human liver microsomes at 5 to 10 uM measured for 120 mins in presence of NADPH by RP-HPLC analysis; type: ADME, Microsome
[20] = Half life in human liver microsomes at 10 to 20 uM measured for 120 mins in presence of UDPGA by RP-HPLC analysis; type: ADME, Microsome
[21] = Metabolic stability in human liver S9 fraction at 5 to 10 uM measured for 120 mins in presence of NADPH by RP-HPLC analysis; type: ADME, subcellular; conditions: s9, 2 h
[22] = Metabolic stability in human liver S9 fraction at 10 to 20 uM measured for 120 mins in presence of UDPGA by RP-HPLC analysis; type: ADME, subcellular; conditions: s9, 2 h
Leishmania infantum [23] = experiment: Induction of mitochondrial membrane potential loss in Leishmania infantum LEM 3049 isolate promastigotes at 0.02 uM after 30 mins by JC-1 dye based flow cytometric analysis relative to control; type: functional
Leishmania infantum [24] = experiment: Induction of mitochondrial membrane potential loss in Leishmania infantum LEM 3049 isolate promastigotes at 1 uM after 24 hrs by JC-1 dye based flow cytometric analysis relative to control; type: functional
Leishmania infantum [25] = experiment: Antileishmanial activity against Leishmania infantum LEM 3049 isolate promastigotes assessed as decrease in ATP level at 0.02 to 1 uM after 30 mins by CellTiter-Glo luminescence assay relative to control; type: functional; design: scale not given: the % may be the effect or the level left
Leishmania infantum [26] = experiment: Antileishmanial activity against Leishmania infantum LEM 3049 isolate promastigotes assessed as decrease in ATP level at 0.02 uM after 120 mins by CellTiter-Glo luminescence assay relative to control; type: functional; design: scale not given: the % may be the effect or the level left
Leishmania infantum [27] = experiment: Antileishmanial activity against Leishmania infantum LEM 3049 isolate promastigotes assessed as decrease in ATP level at 0.1 uM after 120 mins by CellTiter-Glo luminescence assay relative to control; type: functional; design: scale not given: the % may be the effect or the level left
Leishmania infantum [28] = experiment: Antileishmanial activity against Leishmania infantum LEM 3049 isolate promastigotes assessed as decrease in ATP level at 1 uM after 120 mins by CellTiter-Glo luminescence assay relative to control; type: functional; design: scale not given: the % may be the effect or the level left
Leishmania infantum [29] = experiment: Induction of ROS generation in Leishmania infantum LEM 3049 isolate promastigotes at 1 uM after 2 hrs by H2DCFDA staining based flow cytometric analysis relative to control; type: functional
Leishmania infantum [30] = experiment: Induction of plasma membrane permeabilization in Leishmania infantum LEM 3049 isolate promastigotes 0.02 to 1 uM incubated for 2 hrs by SYTOX Green based flow cytometric analysis; type: functional, organism-based
Leishmania infantum [31] = experiment: Induction of plasma membrane depolarization in Leishmania infantum LEM 3049 isolate promastigotes incubated for 2 hrs by DiBAC4(3) probe based flow cytometric analysis; type: functional, organism-based
Leishmania infantum [32] = experiment: Induction of apoptosis in Leishmania infantum LEM 3049 isolate promastigotes assessed as DNA fragmentation at 0.02 to 5 uM after 4 hrs by TUNEL assay; type: functional, organism-based
[33] = Solubility of the compound in water; type: physicochemical; conditions: buffer
[34] = Acute toxicity in BALB/c mouse at 20 mg/kg, po; type: organism-based; conditions: in vivo
[35] = Thermodynamic solubility of the compound in 5% gamma-cyclodextrin in water (w/w) colloidal suspension; type: physicochemical; conditions: read-out: Therm_solubility
[36] = Plasma concentration in BALB/c mouse infected with Leishmania infantum LEM 3049 isolate promastigote at 1.5 mg/kg, po for 4 days by HPLC analysis
[37] = Plasma concentration in BALB/c mouse infected with Leishmania infantum LEM 3049 isolate promastigotes at 1.5 mg/kg, po administered for 4 days and measured 2 days post last dose by HPLC analysis; conditions: in vivo, 48 h, BLD = below limit of detection
[38] = Drug concentration in BALB/c mouse liver infected with Leishmania infantum LEM 3049 isolate promastigotes at 1.5 mg/kg, po administered for 4 days and measured 2 days post last dose by HPLC analysis; conditions: in vivo, 48 h, BLD = below limit of detection
[39] = Drug concentration in BALB/c mouse spleen infected with Leishmania infantum LEM 3049 isolate promastigotes at 1.5 mg/kg, po administered for 4 days and measured 2 days post last dose by HPLC analysis; conditions: in vivo, 48 h, BLD = below limit of detection
Leishmania infantum [40] = experiment: Antileishmanial activity against Leishmania infantum LEM 3049 isolate promastigotes infected in BALB/c mouse assessed as reduction in parasite burden in liver at 1.5 mg/kg, po administered for 4 days and measured 2 days post last dose by light microscopic method relative to control; design: scale not given: the % may be the effect or the level left
Leishmania infantum [41] = experiment: Antileishmanial activity against Leishmania infantum LEM 3049 isolate promastigotes infected in BALB/c mouse assessed as reduction in parasite burden in spleen at 1.5 mg/kg, po administered for 4 days and measured 2 days post last dose by light microscopic method relative to control; design: scale not given: the % may be the effect or the level left

SMILES: O=C(OCCCCCCCCCCCC[P+](c1ccccc1)(c1ccccc1)c1ccccc1)c1ccc(O)cc1O
EC50 (Leishmania donovani [1]): < 1000 nM | EC50 (Leishmania donovani [2]): < 1000 nM | selectivity ratio [3]: > 10

SMILES: O=C(CCCCCCCCCCCCCCC[P+](c1ccccc1)(c1ccccc1)c1ccccc1)c1ccc(O)cc1O.[Br-]
EC50 (Leishmania donovani [1]): 70 nM | EC50 (Leishmania donovani [2]): 90 nM | EC50 (THP-1): 2810 nM | selectivity ratio [3]: 31.2 | Ratio EC50 (Leishmania donovani [4]): 2 | EC50 (Leishmania infantum [5]): 80 nM | EC50 (Leishmania infantum [6]): 100 nM | EC50 (Leishmania infantum [7]): 110 nM | EC50 (Leishmania infantum [8]): 120 nM | EC50 (Leishmania infantum [9]): 120 nM | EC50 (Leishmania infantum [10]): 150 nM | EC50 (Leishmania infantum [11]): 140 nM | EC50 (Leishmania infantum [12]): 140 nM | Cmax [13]: 182 µM | Tmax [14]: 1 h | half-life [15]: 1 h | half-life [16]: 23 h | half-life [17]: < 0.5 h | half-life at up to 20 µM [18]: < 0.5 h | half-life [19]: > 2 h | half-life at up to 20 µM [20]: > 2 h | Stability [21]: Stable | Stability [22]: Stable | Activity (Leishmania infantum [23]): 86% | Activity (Leishmania infantum [24]): 97% | Activity (Leishmania infantum [25]): 50 - 74% | Activity (Leishmania infantum [26]): 91% | Activity (Leishmania infantum [27]): 89% | Activity (Leishmania infantum [28]): 87% | fold change (FC) (Leishmania infantum [29]): 8 | Activity (Leishmania infantum [30]): inactive | Activity (Leishmania infantum [31]): Dose-dependent effect | Activity (Leishmania infantum [32]): inactive | solubility [33]: Insoluble | Activity [34]: Toxic | solubility thermodynamic [35]: 520 µg/mL | concentration at 96 h [36]: > 0.09 µM | Cp [37]: Bld | Drug uptake [38]: Bld | Drug uptake [39]: Bld | Activity (Leishmania infantum [40]): 95.3% | Activity (Leishmania infantum [41]): 98.9%

SMILES: O=Cc1ccc(OCCCCCCCCCCCCCC[P+](c2ccccc2)(c2ccccc2)c2ccccc2)cc1O
EC50 (Leishmania donovani [2]): < 1000 nM | selectivity ratio [3]: 2 to 27

The remaining compounds from weak to strong by EC50 (Leishmania donovani [2]), led by results:

EC50 (Leishmania donovani [2]): 350 nM
SMILES: OCCCCCCCCCCCCCC[P+](c1ccccc1)(c1ccccc1)c1ccccc1
EC50 (Leishmania donovani [1]): 330 nM | EC50 (THP-1): 3050 nM | selectivity ratio [3]: 8.7

EC50 (Leishmania donovani [2]): 110 nM
SMILES: O=C(OCCCCCCCCCCCCCC[P+](c1ccccc1)(c1ccccc1)c1ccccc1)c1ccc(O)cc1O
EC50 (Leishmania donovani [1]): 40 nM | EC50 (THP-1): 3020 nM | selectivity ratio [3]: 27.6
